Columns and labels:
[1] = target: T1, Neutrophil elastase (Homo sapiens) (UniProt P08246)
T1 sequence (whole entry): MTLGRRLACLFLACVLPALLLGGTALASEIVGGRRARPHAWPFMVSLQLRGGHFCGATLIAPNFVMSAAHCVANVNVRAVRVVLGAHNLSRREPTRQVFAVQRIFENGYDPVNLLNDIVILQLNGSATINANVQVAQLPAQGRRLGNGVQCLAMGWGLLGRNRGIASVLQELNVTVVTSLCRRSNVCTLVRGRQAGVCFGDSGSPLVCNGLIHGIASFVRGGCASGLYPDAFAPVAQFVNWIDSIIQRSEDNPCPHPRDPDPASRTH
Description: Second-order rate constant for time-dependent inactivation of leukocyte elastase

Neutrophil elastase = target: T2, Neutrophil elastase (Homo sapiens, UniProt P08246); assay: In vitro inhibition of Human Leukocyte Elastase (HLE)
T2 sequence (P08246 whole entry): T1 sequence (whole entry)

[2] = target: T1, Neutrophil elastase (Homo sapiens); remark: listed apart in the source
Description: Second-order rate constant for time-dependent inactivation of Human Leukocyte Elastase was determined; H means an inverse progress curve was observed

[3] = target: T1, Neutrophil elastase (Homo sapiens); assay: Second-order rate constant for time-dependent inactivation of Human Leukocyte Elastase was determined; G means no time-dependent inhibition was observed
[4] = target: T1, Neutrophil elastase (Homo sapiens); remark: listed apart in the source

| SMILES | K obs / 1 [1] [M⁻¹ s⁻¹] | IC50 (Neutrophil elastase) [nM] | further results |
| --- | --- | --- | --- |
| COC(=O)CCN(C)C(=O)C1=C(COC(C)=O)CS(=O)(=O)[C@@H]2[C@@H](OC)C(=O)N12 | 6200 |  |  |
| CO[C@H]1C(=O)N2C(C(=O)N3CCOCC3)=C(COC(C)=O)CS(=O)(=O)[C@H]12 | 35000 |  |  |
| COc1ccc(COC(=O)C2=C(COC(C)=O)CS(=O)(=O)[C@@H]3[C@@H](OC)C(=O)N23)cc1 |  | 100 | K obs / 1 [2]: Inverse progress curve was observed |
| CO[C@H]1C(=O)N2C(C(=O)NCC(=O)O)=C(COC(C)=O)CS(=O)(=O)[C@H]12 |  | > 50000 |  |
| CO[C@H]1C(=O)N2C(C(=O)N(C)CC(=O)O)=C(COC(C)=O)CS(=O)(=O)[C@H]12 | 300 | 5000 |  |
| CO[C@H]1C(=O)N2C(C(=O)N3CCCC3)=C(COC(C)=O)CS(=O)(=O)[C@H]12 | 27000 |  |  |
| CO[C@H]1C(=O)N2C(C(=O)OCc3ccccc3)=C(COC(C)=O)CS(=O)(=O)[C@H]12 |  | 70 | K obs / 1 [3]: No time-dependent inhibition was observed |
| CO[C@H]1C(=O)N2C(C(=O)NCCC(=O)O)=C(COC(C)=O)CS(=O)(=O)[C@H]12 |  | > 50000 |  |
| COC(=O)CN(C)C(=O)C1=C(COC(C)=O)CS(=O)(=O)[C@@H]2[C@@H](OC)C(=O)N12 | 9500 |  |  |
| CO[C@H]1C(=O)N2C(C(=O)N(C)Cc3ccc(C(=O)O)cc3)=C(COC(C)=O)CS(=O)(=O)[C@H]12 | 8600 | 400 |  |
| CO[C@H]1C(=O)N2C(C(=O)O)=C(COC(C)=O)CS(=O)(=O)[C@H]12 |  | > 50000 |  |
| CO[C@H]1C(=O)N2C(C(=O)N(C)CCC(=O)O)=C(COC(C)=O)CS(=O)(=O)[C@H]12 | 500 |  |  |
| CO[C@H]1C(=O)N2C(C(=O)N(C)CC(=O)OC(C)(C)C)=C(COC(C)=O)CS(=O)(=O)[C@H]12 |  | 200 |  |
| CO[C@H]1C(=O)N2C(C(=O)OCc3ccc(C(=O)OC(C)(C)C)cc3)=C(COC(C)=O)CS(=O)(=O)[C@H]12 |  | 400 | K obs / 1 [3]: No time-dependent inhibition was observed |
| CO[C@H]1C(=O)N2C(C(=O)OC(C)(C)C)=C(COC(C)=O)CS(=O)(=O)[C@H]12 |  |  | K obs / 1 [4]: 16000 M⁻¹ s⁻¹ |
| CO[C@H]1C(=O)N2C(C(=O)N(C)C)=C(COC(C)=O)CS(=O)(=O)[C@H]12 | 3900 | 2000 |  |
| CCCC[C@H](NC(=O)OC(C)(C)C)[C@@H](O)C(=O)O[C@H]1C[C@@]2(O)[C@@H](OC(=O)c3ccccc3)[C@@H]3[C@]4(OC(C)=O)CO[C@@H]4C[C@H](O)[C@@]3(C)[C@@H](O)[C@H](OC(C)=O)C(=C1C)C2(C)C | 900 |  |  |
| CCOC(=O)COC(=O)C1=C(COC(C)=O)CS(=O)(=O)[C@@H]2[C@@H](OC)C(=O)N12 |  | 100 |  |
| CO[C@H]1C(=O)N2C(C(=O)NC(C)(C)C)=C(COC(C)=O)CS(=O)(=O)[C@H]12 | 2200 | 800 |  |
| CO[C@H]1C(=O)N2C(C(=O)OCc3ccc(C(C)(C)C)cc3)=C(COC(C)=O)CS(=O)(=O)[C@H]12 |  | 200 | K obs / 1 [2]: Inverse progress curve was observed |
| COC(=O)C1=C(COC(C)=O)CS(=O)(=O)[C@@H]2[C@@H](OC)C(=O)N12 |  | 200 | K obs / 1 [4]: 17000 M⁻¹ s⁻¹ |

Source: ChEMBL document CHEMBL1124911, “Inhibition of human leukocyte elastase. 2. Inhibition by substituted cephalosporin esters and amides” (J Med Chem, 1990)
